Source: ChEMBL document CHEMBL6127018, “Molecular design and evaluation of aza-polycyclic carbamoyl pyridones as HIV-1 integrase strand transfer inhibitors” (Bioorg Med Chem Lett, 2024)

Assays:
[1] = Half-life in rat at 1 mg/kg, iv; type: ADME, organism-based; details: in vivo
[2] = Half-life in cynomolgus monkey at 1 mg/kg, iv; type: ADME, organism-based, Macaca fascicularis; details: in vivo
[3] = Cmax in rat at 5 mg/kg, po or 1 mg/kg, iv; type: ADME, organism-based; details: in vivo
[4] = Cmax in cynomolgus monkey at 5 mg/kg, po or 1 mg/kg, iv; type: ADME, organism-based, Macaca fascicularis; details: in vivo
[5] = Oral bioavailability in rat at 5 mg/kg; type: ADME, organism-based; details: in vivo
[6] = Free fraction in rat serum at 5 mg/kg, po or 1 mg/kg, iv; type: ADME, organism-based
[7] = Free fraction in cynomolgus monkey serum at 5 mg/kg, po or 1 mg/kg, iv; type: ADME, organism-based, Macaca fascicularis
[8] = target: Human immunodeficiency virus type 1 integrase (Human immunodeficiency virus 1, UniProt Q7ZJM1); test: Inhibition of recombinant HIV-1 integrase by microtiter plate integration assay
[9] = system: Human immunodeficiency virus 1; test: Antiviral activity against HIV-1 infected in human MT4 cells; type: functional, organism-based; details: Human immunodeficiency virus 1, MT4
[10] = Cytotoxicity against human MT4 cells; type: toxicity, cell-based
[11] = Selectivity ratio of PAEC50 for antiviral activity against HIV-1 infected in human MT4 cells in presence of human serum albumin to EC50 for antiviral activity against HIV-1 infected in human MT4 cells; type: functional, Human immunodeficiency virus 1
[12] = system: Human immunodeficiency virus 1; test: Antiviral activity against HIV-1 harboring raltegravir resistant Q148H mutant infected in human HeLa-CD4 cells assessed as fold change; type: functional
[13] = Oral bioavailability in cynomolgus monkey at 5 mg/kg; type: ADME, organism-based, Macaca fascicularis; details: in vivo

Sequence of Human immunodeficiency virus type 1 integrase (Q7ZJM1 whole entry): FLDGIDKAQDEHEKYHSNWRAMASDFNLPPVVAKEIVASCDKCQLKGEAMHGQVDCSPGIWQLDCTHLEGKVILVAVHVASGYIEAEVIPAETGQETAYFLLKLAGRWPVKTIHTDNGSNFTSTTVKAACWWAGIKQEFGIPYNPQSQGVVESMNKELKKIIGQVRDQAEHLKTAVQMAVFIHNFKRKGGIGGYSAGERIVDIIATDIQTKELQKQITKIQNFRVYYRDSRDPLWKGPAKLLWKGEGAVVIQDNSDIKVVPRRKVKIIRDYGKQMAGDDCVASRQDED

SMILES | half-life [1] | half-life [2] | Cmax [3] | Cmax [4] | bioavailability [5] | fraction unbound [6] | fraction unbound [7] | IC50 [8] | EC50 [9] | CC50 [10] | Selectivity ratio [11] | fold change (FC) [12] | bioavailability [13]
C[C@@H]1CCO[C@H]2Cn3cc(C(=O)NCc4ccc(F)cc4F)c(=O)c([O-])c3C(=O)N12.[Na+] [DOLUTEGRAVIR SODIUM] | 6.2 h | 6 h | 10700 ng/mL | 817 ng/mL | 33% | 0.0008 | 0.0058 |  |  |  |  |  | 
CN1NCn2cc(C(=O)NCc3ccc(F)cc3F)c(=O)c(O)c2C1=O |  |  |  |  |  |  |  | 4.8 nM | 3.9 nM | 34000 nM | 12 |  | 
COCCN1CN(Cc2cccnc2)n2cc(C(=O)NCc3ccc(F)cc3F)c(=O)c(O)c2C1=O |  |  |  |  |  |  |  | 6.9 nM | 3.2 nM | 8100 nM | 3.3 | 1.4 | 
CN1CN(Cc2cccs2)C(=O)c2c(O)c(=O)c(C(=O)NCc3ccc(F)cc3F)cn21 |  |  |  |  |  |  |  | 4.5 nM | 1.7 nM | > 50000 nM | 96 | 0.72 | 
CCN(CC)CCN1CN(CCOC)C(=O)c2c(O)c(=O)c(C(=O)NCc3ccc(F)cc3F)cn21 |  |  |  |  |  |  |  | 22 nM | 13 nM | 11000 nM | 1.4 | 2.3 | 
CN1Cn2cc(C(=O)NCc3ccc(F)cc3F)c(=O)c(O)c2C(=O)N1CCO |  |  |  |  |  |  |  | 4.9 nM | 15 nM | > 50000 nM | 18 |  | 
O=C(NCc1ccc(F)cc1)c1cn2c(c(O)c1=O)C(=O)N1CCCN1C2 |  |  |  |  |  |  |  | 5.2 nM | 3.6 nM | 41000 nM | 9.1 |  | 
CN1CN(C2CC2)C(=O)c2c(O)c(=O)c(C(=O)NCc3ccc(F)cc3F)cn21 |  |  |  |  |  |  |  | 4.7 nM | 2 nM | 12000 nM | 1000 | 1.5 | 
COCCN1CN(C)n2cc(C(=O)NCc3ccc(F)cc3F)c(=O)c(O)c2C1=O |  |  |  |  |  |  |  | 4.8 nM | 0.83 nM | 13000 nM | 18 | 0.81 | 
CN(C)CCN1CN(C)n2cc(C(=O)NCc3ccc(F)cc3F)c(=O)c(O)c2C1=O |  |  |  |  |  |  |  | 11 nM | 4.8 nM | 12000 nM | 2.2 | 5 | 
CCN1CN(CCOC)C(=O)c2c(O)c(=O)c(C(=O)NCc3ccc(F)cc3F)cn21 |  |  |  |  |  |  |  | 4.9 nM | 1.3 nM | 8500 nM | 110 | 0.73 | 
COCCN1CN(CCO)n2cc(C(=O)NCc3ccc(F)cc3F)c(=O)c(O)c2C1=O |  |  |  |  |  |  |  | 5.4 nM | 9.4 nM | 28000 nM | 13 | 0.7 | 
COCCN1CN(CC(C)C)n2cc(C(=O)NCc3ccc(F)cc3F)c(=O)c(O)c2C1=O |  |  |  |  |  |  |  | 6.1 nM | 3.5 nM | 13000 nM | 620 | 0.6 | 
COCCN1CN(Cc2ccccn2)n2cc(C(=O)NCc3ccc(F)cc3F)c(=O)c(O)c2C1=O |  |  |  |  |  |  |  | 9.1 nM | 2.4 nM | 7000 nM | 4.7 | 1.2 | 
CN1Cn2cc(C(=O)NCc3ccc(F)cc3F)c(=O)c([O-])c2C(=O)N1C.[Na+] |  |  |  |  |  |  |  | 3.7 nM | 2.4 nM | > 50000 nM | 52 |  | 
COCCN1CN(Cc2ccccc2)n2cc(C(=O)NCc3ccc(F)cc3F)c(=O)c(O)c2C1=O |  |  |  |  |  |  |  | 3.5 nM | 1.9 nM | 5000 nM | 17 | 1.1 | 
O=C(NCc1ccc(F)cc1F)c1cn2c(c([O-])c1=O)C(=O)N1CCCN1C2.[Na+] | 27.5 h | 3.7 h | 6390 ng/mL | 345 ng/mL | 13% | 0.0002 | 0.0052 |  |  |  |  |  | 6.4%
CC(C)N1CN(C)n2cc(C(=O)NCc3ccc(F)cc3F)c(=O)c(O)c2C1=O |  |  |  |  |  |  |  | 5.3 nM | 1.3 nM | 3900 nM | 230 | 0.64 | 
COCCN1C(=O)c2c([O-])c(=O)c(C(=O)NCc3ccc(F)cc3F)cn2CN1C.[Na+] | 21.9 h | 3.1 h | 9330 ng/mL | 385 ng/mL | 21% | 0.0014 | 0.0118 |  |  |  |  |  | 6.1%
CCN1Cn2cc(C(=O)NCc3ccc(F)cc3F)c(=O)c(O)c2C(=O)N1 |  |  |  |  |  |  |  | 4.5 nM | 11 nM | > 50000 nM | 44 |  | 

SMILES | half-life [1] | half-life [2] | Cmax [3] | Cmax [4] | bioavailability [5] | fraction unbound [6] | fraction unbound [7] | IC50 [8] | EC50 [9] | CC50 [10] | Selectivity ratio [11] | fold change (FC) [12] | bioavailability [13]
CN1C(=O)c2c(O)c(=O)c(C(=O)NCc3ccc(F)cc3F)cn2CN1CCO |  |  |  |  |  |  |  | 4.7 nM | 20 nM | > 50000 nM | 3.1 |  | 
CN1Cn2cc(C(=O)NCc3ccc(F)cc3F)c(=O)c(O)c2C(=O)N1 |  |  |  |  |  |  |  | 4.5 nM | 29 nM | > 50000 nM | 8.4 |  | 
COCCN1CN(C(c2ccccc2)c2ccccc2)n2cc(C(=O)NCc3ccc(F)cc3F)c(=O)c(O)c2C1=O |  |  |  |  |  |  |  |  | 57000 nM |  |  |  | 
C[C@@H]1CCO[C@H]2Cn3cc(C(=O)NCc4ccc(F)cc4F)c(=O)c(O)c3C(=O)N12 [DOLUTEGRAVIR] |  |  |  |  |  |  |  |  | 2.1 nM | 15000 nM |  | 0.74 | 
O=C(NCc1ccc(F)cc1F)c1cn2c(c(O)c1=O)C(=O)N1CCCCCN1C2 |  |  |  |  |  |  |  | 6.2 nM | 3.5 nM | 17000 nM | 400 |  | 
CN1CN(Cc2ccco2)C(=O)c2c(O)c(=O)c(C(=O)NCc3ccc(F)cc3F)cn21 |  |  |  |  |  |  |  | 5.7 nM | 1.5 nM | > 50000 nM | 89 | 0.77 | 
COCCCN1CN(C)n2cc(C(=O)NCc3ccc(F)cc3F)c(=O)c(O)c2C1=O |  |  |  |  |  |  |  | 5.6 nM | 1.3 nM | 18000 nM | 11 | 0.93 | 
O=C(NCc1ccc(F)cc1F)c1cn2c(c(O)c1=O)C(=O)N1CCOCCN1C2 |  |  |  |  |  |  |  | 8.7 nM | 4.6 nM | 32000 nM | 20 |  | 
COCCN1C(=O)c2c(O)c(=O)c(C(=O)NCc3ccc(F)cc3F)cn2CN1C |  |  |  |  |  |  |  | 4.5 nM | 1.4 nM | 18000 nM | 24 | 1.7 | 
COCCN1CN(C)n2cc(C(=O)NCc3ccc(F)cc3F)c(=O)c([O-])c2C1=O.[Na+] | 14.3 h | 4.8 h | 18000 ng/mL | 1700 ng/mL | 46% | 0.0011 | 0.0072 |  |  |  |  |  | 31%
O=C(NCc1ccc(F)cc1F)c1cn2c(c(O)c1=O)C(=O)N1CCCN1C2 |  |  |  |  |  |  |  | 3.4 nM | 2.2 nM | > 50000 nM | 12 |  | 
CC(C)N1NCn2cc(C(=O)NCc3ccc(F)cc3F)c(=O)c(O)c2C1=O |  |  |  |  |  |  |  | 4.3 nM | 1.7 nM | 15000 nM | 34 |  | 
CN1CN(C[C@H]2CCCO2)C(=O)c2c(O)c(=O)c(C(=O)NCc3ccc(F)cc3F)cn21 |  |  |  |  |  |  |  | 4.2 nM | 1.4 nM | 9800 nM | 23 | 1.5 | 
COCCN1Cn2cc(C(=O)NCc3ccc(F)cc3F)c(=O)c(O)c2C(=O)N1C |  |  |  |  |  |  |  | 4.4 nM | 1.6 nM | 15000 nM | 14 | 2.3 | 
O=C(NCc1ccc(F)cc1)c1cn2c(c(O)c1=O)C(=O)N1CCCCN1C2 |  |  |  |  |  |  |  | 4.5 nM | 1.8 nM | 23000 nM | 215 |  | 
COCCN1CN(CC(=O)N(C)C)n2cc(C(=O)NCc3ccc(F)cc3F)c(=O)c(O)c2C1=O |  |  |  |  |  |  |  | 5.1 nM | 15 nM | 38000 nM | 5 | 0.9 | 
CN1CN(Cc2ccc(F)cc2)C(=O)c2c(O)c(=O)c(C(=O)NCc3ccc(F)cc3F)cn21 |  |  |  |  |  |  |  | 4.5 nM | 1.7 nM | > 50000 nM | 25 | 0.51 | 
CN1CN(CC2CC2)C(=O)c2c(O)c(=O)c(C(=O)NCc3ccc(F)cc3F)cn21 |  |  |  |  |  |  |  | 4 nM | 1.3 nM | 13000 nM | 360 | 0.85 | 
CC(=O)NCCN1Cn2cc(C(=O)NCc3ccc(F)cc3F)c(=O)c(O)c2C(=O)N1C |  |  |  |  |  |  |  | 9 nM | 120 nM | > 50000 nM | 2.8 |  | 
CN1CN(C[C@@H]2CCCO2)C(=O)c2c(O)c(=O)c(C(=O)NCc3ccc(F)cc3F)cn21 |  |  |  |  |  |  |  | 4.7 nM | 1.3 nM | 14000 nM | 13 | 1 | 
